Assay results from paper PMC13476077, “Systematic comparison of temporal hepatotoxicant-induced gene network responses across 3 liver test systems” (Toxicological Sciences, 2026).

Test: Pharmacokinetic properties from the literature
Format: in vivo
Details: Minimal PBPK model; Derived using WinNonLin, ref Huang et al. (1986)
Source text: Compound-specific physicochemical properties (e.g., pKa, fraction unbound in plasma, etc.) are detailed in Table S1B and were used to parameterize each model.

Vss: 0.345 L/kg
SMILES: CC(=O)N1CCN(c2ccc(OCC3COC(Cn4ccnc4)(c4ccc(Cl)cc4Cl)O3)cc2)CC1 (stereo not shown) [Ketoconazole]
